Activity calls are given as the source filed them. The rule behind the calls is not given here.
How the values were obtained:
[1] = molecular target: Histone deacetylase 4 (Homo sapiens) (UniProt P56524); test: Inhibition of HDAC4 in human U937 cells at 5 uM […]; type: cell-based; conditions: U-937
U-937 [2] = test: Effect on DNMT1 level in human U937 cells at 0.5 to 5 uM after 24 hrs by Western blot analysis; type: functional, cell-based
[3] = molecular target: T1, Protein deacetylase HDAC6 (Homo sapiens) (UniProt Q9UBN7); test: Inhibition of HDAC6 in human U937 cells assessed as induction of alpha-tubulin acetylation at 5 uM after 30 hrs by cytofluorimetric analysis; type: cell-based; conditions: U-937
T1 sequence (whole entry): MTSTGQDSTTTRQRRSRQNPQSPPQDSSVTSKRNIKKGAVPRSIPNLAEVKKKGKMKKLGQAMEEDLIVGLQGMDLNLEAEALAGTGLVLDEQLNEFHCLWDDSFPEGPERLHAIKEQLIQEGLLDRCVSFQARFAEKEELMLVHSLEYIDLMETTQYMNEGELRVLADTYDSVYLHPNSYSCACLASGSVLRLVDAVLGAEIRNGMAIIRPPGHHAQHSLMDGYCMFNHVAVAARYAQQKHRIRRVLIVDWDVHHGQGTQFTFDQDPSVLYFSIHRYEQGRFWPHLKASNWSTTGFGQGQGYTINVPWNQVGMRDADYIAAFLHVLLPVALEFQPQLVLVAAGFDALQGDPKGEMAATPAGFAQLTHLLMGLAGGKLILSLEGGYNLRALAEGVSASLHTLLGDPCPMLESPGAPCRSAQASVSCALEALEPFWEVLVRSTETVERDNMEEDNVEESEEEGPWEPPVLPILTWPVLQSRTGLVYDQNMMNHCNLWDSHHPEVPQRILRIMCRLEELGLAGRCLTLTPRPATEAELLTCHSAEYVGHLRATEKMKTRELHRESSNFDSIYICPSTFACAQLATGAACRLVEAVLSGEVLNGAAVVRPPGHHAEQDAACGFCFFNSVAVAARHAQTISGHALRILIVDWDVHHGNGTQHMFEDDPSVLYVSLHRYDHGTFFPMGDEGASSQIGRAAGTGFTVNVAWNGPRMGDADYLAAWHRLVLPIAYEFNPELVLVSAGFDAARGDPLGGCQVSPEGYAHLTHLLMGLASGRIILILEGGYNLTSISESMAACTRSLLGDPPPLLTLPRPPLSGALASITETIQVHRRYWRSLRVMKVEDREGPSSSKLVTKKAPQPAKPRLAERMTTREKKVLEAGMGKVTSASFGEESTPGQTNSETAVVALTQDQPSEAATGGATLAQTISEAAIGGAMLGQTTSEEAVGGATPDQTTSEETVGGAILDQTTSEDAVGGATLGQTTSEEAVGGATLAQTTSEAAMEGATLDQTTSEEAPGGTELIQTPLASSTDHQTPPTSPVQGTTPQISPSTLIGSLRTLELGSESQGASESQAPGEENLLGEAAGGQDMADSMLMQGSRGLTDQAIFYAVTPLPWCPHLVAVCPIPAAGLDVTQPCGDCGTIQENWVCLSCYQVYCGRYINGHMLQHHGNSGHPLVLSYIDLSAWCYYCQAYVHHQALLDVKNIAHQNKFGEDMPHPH

[4] = molecular target: Histone deacetylase (Homo sapiens) (UniProt Q13547+O15379+Q9UBN7+Q92769+Q9UQL6+Q8WUI4+Q9BY41+Q96DB2+P56524+Q9UKV0+Q969S8); test: Inhibition of HDAC in human U937 cells assessed as induction of histone H3 acetylation at 5 uM after 30 hrs by cytofluorimetric analysis; type: cell-based; conditions: U-937
[5] = molecular target: T2, NAD-dependent protein deacetylase sirtuin-1 (Homo sapiens) (UniProt Q96EB6); test: Inhibition of SIRT1 in human MCF7 cells assessed as p53 acetylation on lysine 382 at 5 uM after 24 hrs by Western blot analysis; type: cell-based
T2 sequence (whole entry): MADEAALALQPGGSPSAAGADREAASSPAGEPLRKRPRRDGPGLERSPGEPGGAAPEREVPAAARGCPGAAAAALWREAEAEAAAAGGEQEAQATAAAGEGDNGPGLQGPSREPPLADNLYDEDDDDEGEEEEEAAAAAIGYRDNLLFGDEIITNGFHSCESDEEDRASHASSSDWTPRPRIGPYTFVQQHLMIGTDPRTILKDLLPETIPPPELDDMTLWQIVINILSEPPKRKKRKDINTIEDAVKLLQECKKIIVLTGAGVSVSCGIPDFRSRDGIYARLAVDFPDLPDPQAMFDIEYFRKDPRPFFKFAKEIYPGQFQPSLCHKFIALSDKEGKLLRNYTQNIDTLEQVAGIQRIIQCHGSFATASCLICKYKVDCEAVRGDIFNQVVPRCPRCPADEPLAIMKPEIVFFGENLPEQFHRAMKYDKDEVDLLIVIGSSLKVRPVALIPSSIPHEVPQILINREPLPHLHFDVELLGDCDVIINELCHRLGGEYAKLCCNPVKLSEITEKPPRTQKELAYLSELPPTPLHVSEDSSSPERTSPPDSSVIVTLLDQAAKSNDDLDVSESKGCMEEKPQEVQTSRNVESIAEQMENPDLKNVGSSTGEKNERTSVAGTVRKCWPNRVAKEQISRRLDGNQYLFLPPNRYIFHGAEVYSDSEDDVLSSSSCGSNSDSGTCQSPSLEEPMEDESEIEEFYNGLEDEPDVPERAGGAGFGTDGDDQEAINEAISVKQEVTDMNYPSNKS

[6] = molecular target: Protein kinase C alpha type (Homo sapiens) (UniProt P17252); test: Inhibition of PKCalpha in human U937 cells assessed as p21WAF1/CIP1 expression at 5 uM after 30 hrs by cytofluorimetric analysis; type: cell-based; conditions: U-937
[7] = molecular target: T2, NAD-dependent protein deacetylase sirtuin-1 (Homo sapiens); test: Inhibition of human recombinant SIRT1 using KI-177 as substrate at 5 uM after 30 mins by fluorescence assay
[8] = molecular target: Histone deacetylase 1 (Homo sapiens) (UniProt Q13547); test: Inhibition of HDAC1 in human U937 cells at 5 uM […]; type: cell-based; conditions: U-937
Chain of Histone deacetylase 1 (Homo sapiens) (Q13547 whole entry): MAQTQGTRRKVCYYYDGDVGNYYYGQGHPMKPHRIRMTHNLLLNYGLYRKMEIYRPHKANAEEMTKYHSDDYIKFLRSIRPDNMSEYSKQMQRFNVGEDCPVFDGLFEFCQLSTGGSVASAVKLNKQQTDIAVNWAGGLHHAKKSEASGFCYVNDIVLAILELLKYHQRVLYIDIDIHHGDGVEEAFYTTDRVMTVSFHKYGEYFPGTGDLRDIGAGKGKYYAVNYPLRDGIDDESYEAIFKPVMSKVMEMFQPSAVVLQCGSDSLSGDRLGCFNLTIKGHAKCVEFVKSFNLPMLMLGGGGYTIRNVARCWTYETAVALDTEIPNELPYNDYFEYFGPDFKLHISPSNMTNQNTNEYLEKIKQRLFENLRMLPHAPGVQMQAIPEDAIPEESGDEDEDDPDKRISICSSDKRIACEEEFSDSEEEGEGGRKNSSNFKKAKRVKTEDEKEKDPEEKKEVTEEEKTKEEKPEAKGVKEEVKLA

[9] = molecular target: DNA (cytosine-5)-methyltransferase 1 (Homo sapiens) (UniProt P26358); test: Inhibition of recombinant DNMT1 using S-adenosyl-L-[methyl-3H]methionine as substrate at 5 uM after 2 hrs by radioactive assay
Chain of DNA (cytosine-5)-methyltransferase 1 (Homo sapiens) (P26358 whole entry): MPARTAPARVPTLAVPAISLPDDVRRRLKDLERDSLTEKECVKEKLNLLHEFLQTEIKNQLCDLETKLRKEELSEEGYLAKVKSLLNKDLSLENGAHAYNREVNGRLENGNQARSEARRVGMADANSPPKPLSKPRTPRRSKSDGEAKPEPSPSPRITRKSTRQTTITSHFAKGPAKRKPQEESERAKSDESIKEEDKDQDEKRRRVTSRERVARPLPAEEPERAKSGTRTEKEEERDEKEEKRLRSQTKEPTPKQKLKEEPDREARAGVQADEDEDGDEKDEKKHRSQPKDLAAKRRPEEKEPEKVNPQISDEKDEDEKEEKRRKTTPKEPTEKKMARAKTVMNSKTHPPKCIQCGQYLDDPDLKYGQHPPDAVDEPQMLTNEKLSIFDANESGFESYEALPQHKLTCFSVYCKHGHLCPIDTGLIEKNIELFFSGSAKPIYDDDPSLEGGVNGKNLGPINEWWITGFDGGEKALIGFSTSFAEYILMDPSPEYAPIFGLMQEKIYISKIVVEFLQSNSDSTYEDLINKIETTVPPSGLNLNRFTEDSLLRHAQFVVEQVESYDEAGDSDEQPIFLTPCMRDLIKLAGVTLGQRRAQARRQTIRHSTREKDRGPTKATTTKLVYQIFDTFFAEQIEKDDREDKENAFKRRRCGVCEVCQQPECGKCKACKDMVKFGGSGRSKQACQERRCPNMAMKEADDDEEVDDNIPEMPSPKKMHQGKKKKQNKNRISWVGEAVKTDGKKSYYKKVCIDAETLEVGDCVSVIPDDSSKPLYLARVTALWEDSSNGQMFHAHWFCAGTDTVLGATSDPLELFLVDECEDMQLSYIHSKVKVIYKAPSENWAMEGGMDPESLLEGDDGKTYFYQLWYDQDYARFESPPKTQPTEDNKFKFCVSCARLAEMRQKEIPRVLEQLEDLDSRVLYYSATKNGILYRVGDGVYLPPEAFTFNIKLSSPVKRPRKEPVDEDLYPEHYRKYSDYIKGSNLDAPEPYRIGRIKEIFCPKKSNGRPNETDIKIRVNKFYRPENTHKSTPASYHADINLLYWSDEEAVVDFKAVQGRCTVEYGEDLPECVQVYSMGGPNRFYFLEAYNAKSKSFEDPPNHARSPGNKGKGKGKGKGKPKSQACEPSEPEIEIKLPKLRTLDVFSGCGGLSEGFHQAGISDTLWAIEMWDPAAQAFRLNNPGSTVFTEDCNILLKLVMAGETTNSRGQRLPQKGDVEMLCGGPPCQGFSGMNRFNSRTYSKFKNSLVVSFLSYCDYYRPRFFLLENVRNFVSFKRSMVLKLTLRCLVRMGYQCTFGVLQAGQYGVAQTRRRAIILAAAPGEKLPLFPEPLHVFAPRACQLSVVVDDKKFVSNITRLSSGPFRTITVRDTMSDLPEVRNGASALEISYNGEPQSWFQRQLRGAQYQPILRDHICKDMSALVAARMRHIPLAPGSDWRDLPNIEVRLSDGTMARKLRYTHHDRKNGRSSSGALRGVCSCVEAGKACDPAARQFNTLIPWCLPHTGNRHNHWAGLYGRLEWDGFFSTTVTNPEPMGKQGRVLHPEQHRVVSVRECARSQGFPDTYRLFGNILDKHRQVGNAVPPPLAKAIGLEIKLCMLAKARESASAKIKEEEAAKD

[10] = molecular target: T2, NAD-dependent protein deacetylase sirtuin-1 (Homo sapiens); test: Inhibition of SIRT1 in human U937 cells assessed as H3 acetylation on lysine K9 at 5 uM after 24 hrs by Western blot analysis; type: cell-based; conditions: U-937
[11] = molecular target: T2, NAD-dependent protein deacetylase sirtuin-1 (Homo sapiens); test: Inhibition of SIRT1 in human U937 cells assessed as H3 acetylation on lysine K56 at 5 uM after 24 hrs by Western blot analysis; type: cell-based; conditions: U-937
[12] = molecular target: DNA (cytosine-5)-methyltransferase 1 (Homo sapiens) (UniProt P26358); test: Inhibition of DNMT1 human u937 cells assessed as reactivation of p16 expression at 0.5 to 5 uM after 24 hrs by Western blot analysis
U-937 [13] = test: Induction of cell differentiation in human U937 cells assessed as CD11c expression at 5 uM after 30 hrs by cytofluorimetric analysis; type: functional, cell-based
U-937 [14] = test: Induction of apoptosis in human U937 cells at 5 uM after 30 hrs; type: functional, cell-based

Chain of Histone deacetylase 4 (Homo sapiens) (P56524 whole entry): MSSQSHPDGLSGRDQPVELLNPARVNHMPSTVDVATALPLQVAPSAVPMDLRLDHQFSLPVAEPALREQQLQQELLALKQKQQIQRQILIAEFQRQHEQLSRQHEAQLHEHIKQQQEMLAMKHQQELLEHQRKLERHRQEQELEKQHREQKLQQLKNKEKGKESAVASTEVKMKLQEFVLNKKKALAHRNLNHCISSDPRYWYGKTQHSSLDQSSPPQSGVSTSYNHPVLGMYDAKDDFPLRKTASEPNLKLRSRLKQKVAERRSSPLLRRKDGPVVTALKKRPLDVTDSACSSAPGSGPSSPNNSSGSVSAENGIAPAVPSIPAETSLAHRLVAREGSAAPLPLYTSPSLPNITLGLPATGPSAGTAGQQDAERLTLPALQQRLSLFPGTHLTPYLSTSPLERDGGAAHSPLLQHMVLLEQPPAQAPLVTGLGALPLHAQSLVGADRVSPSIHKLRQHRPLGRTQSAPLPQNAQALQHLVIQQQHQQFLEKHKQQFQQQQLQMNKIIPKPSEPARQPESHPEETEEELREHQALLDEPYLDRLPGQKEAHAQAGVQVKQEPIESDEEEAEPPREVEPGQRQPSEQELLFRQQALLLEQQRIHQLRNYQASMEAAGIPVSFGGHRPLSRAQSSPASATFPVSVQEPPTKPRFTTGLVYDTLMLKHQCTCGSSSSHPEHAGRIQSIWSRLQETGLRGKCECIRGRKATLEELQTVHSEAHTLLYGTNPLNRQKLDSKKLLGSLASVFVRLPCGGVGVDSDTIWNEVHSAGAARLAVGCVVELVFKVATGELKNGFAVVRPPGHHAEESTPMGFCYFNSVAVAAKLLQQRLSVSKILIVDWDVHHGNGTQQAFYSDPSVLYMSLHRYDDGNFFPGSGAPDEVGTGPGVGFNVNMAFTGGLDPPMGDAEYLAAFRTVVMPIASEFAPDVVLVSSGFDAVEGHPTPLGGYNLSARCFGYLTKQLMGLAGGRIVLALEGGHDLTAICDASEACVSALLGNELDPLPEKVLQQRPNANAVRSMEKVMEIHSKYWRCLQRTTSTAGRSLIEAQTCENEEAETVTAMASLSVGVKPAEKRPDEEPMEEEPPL

| SMILES | inhibition [1] | inhibition [3] | inhibition [4] | inhibition [6] | inhibition [8] | Activity (U-937 [2]) | other results |
| --- | --- | --- | --- | --- | --- | --- | --- |
| O=C(NCCSSCCNC(=O)/C(Cc1c[nH]c2ccccc12)=N/O)/C(Cc1c[nH]c2ccccc12)=N/O | 20% | Active | Active | Active | 40% | inactive | inhibition [5]: Active; inhibition [7]: Active |
| O=C(O)[C@H](Cc1c[nH]c2ccccc12)N1C(=O)c2ccccc2C1=O | – | – | – | – | – | – | inhibition [9]: Active |
| COCCNC(=O)/C(Cc1c[nH]c2ccc(Br)cc12)=N/O | – | Active | – | – | – | inactive | inhibition [10]: inactive; inhibition [11]: inactive; inhibition [7]: inactive |
| O=C(NCCSSCCNC(=O)/C(Cc1c[nH]c2cccc(Br)c12)=N/O)/C(Cc1c[nH]c2cccc(Br)c12)=N/O | – | Active | – | – | – | – | – |
| COc1ccc2[nH]cc(C/C(=N\O)C(=O)NCCSSCCNC(=O)/C(Cc3c[nH]c4ccc(OC)cc34)=N/O)c2c1 | Active | Active | Active | Active | Active | – | Activity (U-937 [13]): Active; Activity (U-937 [14]): Active |
| O=C(NCCSSCCNC(=O)/C(Cc1c[nH]c2ccc(I)cc12)=N/O)/C(Cc1c[nH]c2ccc(I)cc12)=N/O | Active | Active | Active | Active | Active | – | Activity (U-937 [14]): Active |
| Cn1cc(CCC(=O)NCCSSCCNC(=O)CCc2cn(C)c3ccc(Br)cc23)c2cc(Br)ccc21 | – | Active | – | – | – | – | – |

More lines, main results first:

| inhibition [1] | inhibition [3] | inhibition [4] | inhibition [6] | inhibition [8] | SMILES | Activity (U-937 [2]) | other results |
| --- | --- | --- | --- | --- | --- | --- | --- |
| Active | Active | – | – | Active | CO/N=C(\Cc1c[nH]c2ccc(Br)cc12)C(=O)NCCSSCCNC(=O)/C(Cc1c[nH]c2ccc(Br)cc12)=N/OC | inactive | inhibition [9]: Active; inhibition [12]: Active |
| 20% | Active | – | – | 40% | O=C(NCCCCCSSCCCCCNC(=O)/C(Cc1c[nH]c2ccc(Br)cc12)=N/O)/C(Cc1c[nH]c2ccc(Br)cc12)=N/O | – | – |
| – | Active | – | – | – | O=C(NCCCSSCCCNC(=O)/C(Cc1c[nH]c2ccc(Br)cc12)=N/O)/C(Cc1c[nH]c2ccc(Br)cc12)=N/O | – | Activity (U-937 [13]): Active |
| Active | inactive | inactive | inactive | Active | O=C(NCCSSCCNC(=O)/C(Cc1c[nH]c2ccc(F)cc12)=N/O)/C(Cc1c[nH]c2ccc(F)cc12)=N/O | – | Activity (U-937 [14]): Active |
| Active | Active | Active | Active | Active | O=C(NCCSSCCNC(=O)/C(Cc1c[nH]c2ccc(Cl)cc12)=N/O)/C(Cc1c[nH]c2ccc(Cl)cc12)=N/O | – | Activity (U-937 [14]): Active |
| – | Active | – | – | – | O=C(NCCSSCCNC(=O)/C(Cc1c[nH]c2ccc(Br)cc12)=N/OCc1ccccc1)/C(Cc1c[nH]c2ccc(Br)cc12)=N/OCc1ccccc1 | – | – |
| – | Active | – | – | – | O=C(NCCSSCCNC(=O)/C(Cc1cn(Cc2ccc(Br)cc2)c2ccc(Br)cc12)=N/O)/C(Cc1cn(Cc2ccc(Br)cc2)c2ccc(Br)cc12)=N/O | inactive | inhibition [10]: Active; inhibition [11]: Active; inhibition [7]: Active |
| – | Active | – | – | – | O=C(NCCCCCCCCNC(=O)/C(Cc1c[nH]c2ccc(Br)cc12)=N/O)/C(Cc1c[nH]c2ccc(Br)cc12)=N/O | inactive | inhibition [10]: Active; inhibition [9]: inactive; inhibition [11]: Active; inhibition [12]: Active; inhibition [7]: Active |
